Our source for the IC50 values is patent publication US10005768B2, “Carboxamide derivatives and use thereof” (Purdue Pharma L.P., priority 2013, dated 2018).

SMILES strings stand for the structures.

By IC50 is commonly meant the midpoint of a concentration-inhibition curve.

For the first experiment, the target named is T1, human Nav1.7 (Homo sapiens (Human), UniProt Q15858). The experiment can be described thus: FLIPR membrane potential dye assay (alternative fluorescence assay). To be noted: recombinant Nav1.7/HEK293 cells. Type of experiment: cell-based. As for the experimental part: In vitro assays were performed in a recombinant cell line expressing cDNA encoding the alpha subunit (Nav1.7, SCN9a, PN1, NE) of human Nav1.7 (Accession No. NM_002977). The cell line was provided by investigators at Yale University (Cummins et al, J. Neurosci. 18(23): 9607-9619 (1998)). For dominant selection of the Nav1.7-expressing clones, the expression plasmid co-expressed the neomycin resistance gene. The cell line was constructed in the human embryonic kidney cell line, HEK293, under the influence of the CMV […] promoter, and stable clones were selected using limiting dilution cloning and antibiotic selection using the neomycin analogue, G418. Recombinant beta and gamma subunits were not introduced into this cell line. Additional cell lines expressing recombinant Nav1.7 cloned from other species can also be used, alone or in combination with various beta subunits, gamma subunits or chaperones.
T1 sequence (Q15858 other isoform, or with tags, fused parts or gaps): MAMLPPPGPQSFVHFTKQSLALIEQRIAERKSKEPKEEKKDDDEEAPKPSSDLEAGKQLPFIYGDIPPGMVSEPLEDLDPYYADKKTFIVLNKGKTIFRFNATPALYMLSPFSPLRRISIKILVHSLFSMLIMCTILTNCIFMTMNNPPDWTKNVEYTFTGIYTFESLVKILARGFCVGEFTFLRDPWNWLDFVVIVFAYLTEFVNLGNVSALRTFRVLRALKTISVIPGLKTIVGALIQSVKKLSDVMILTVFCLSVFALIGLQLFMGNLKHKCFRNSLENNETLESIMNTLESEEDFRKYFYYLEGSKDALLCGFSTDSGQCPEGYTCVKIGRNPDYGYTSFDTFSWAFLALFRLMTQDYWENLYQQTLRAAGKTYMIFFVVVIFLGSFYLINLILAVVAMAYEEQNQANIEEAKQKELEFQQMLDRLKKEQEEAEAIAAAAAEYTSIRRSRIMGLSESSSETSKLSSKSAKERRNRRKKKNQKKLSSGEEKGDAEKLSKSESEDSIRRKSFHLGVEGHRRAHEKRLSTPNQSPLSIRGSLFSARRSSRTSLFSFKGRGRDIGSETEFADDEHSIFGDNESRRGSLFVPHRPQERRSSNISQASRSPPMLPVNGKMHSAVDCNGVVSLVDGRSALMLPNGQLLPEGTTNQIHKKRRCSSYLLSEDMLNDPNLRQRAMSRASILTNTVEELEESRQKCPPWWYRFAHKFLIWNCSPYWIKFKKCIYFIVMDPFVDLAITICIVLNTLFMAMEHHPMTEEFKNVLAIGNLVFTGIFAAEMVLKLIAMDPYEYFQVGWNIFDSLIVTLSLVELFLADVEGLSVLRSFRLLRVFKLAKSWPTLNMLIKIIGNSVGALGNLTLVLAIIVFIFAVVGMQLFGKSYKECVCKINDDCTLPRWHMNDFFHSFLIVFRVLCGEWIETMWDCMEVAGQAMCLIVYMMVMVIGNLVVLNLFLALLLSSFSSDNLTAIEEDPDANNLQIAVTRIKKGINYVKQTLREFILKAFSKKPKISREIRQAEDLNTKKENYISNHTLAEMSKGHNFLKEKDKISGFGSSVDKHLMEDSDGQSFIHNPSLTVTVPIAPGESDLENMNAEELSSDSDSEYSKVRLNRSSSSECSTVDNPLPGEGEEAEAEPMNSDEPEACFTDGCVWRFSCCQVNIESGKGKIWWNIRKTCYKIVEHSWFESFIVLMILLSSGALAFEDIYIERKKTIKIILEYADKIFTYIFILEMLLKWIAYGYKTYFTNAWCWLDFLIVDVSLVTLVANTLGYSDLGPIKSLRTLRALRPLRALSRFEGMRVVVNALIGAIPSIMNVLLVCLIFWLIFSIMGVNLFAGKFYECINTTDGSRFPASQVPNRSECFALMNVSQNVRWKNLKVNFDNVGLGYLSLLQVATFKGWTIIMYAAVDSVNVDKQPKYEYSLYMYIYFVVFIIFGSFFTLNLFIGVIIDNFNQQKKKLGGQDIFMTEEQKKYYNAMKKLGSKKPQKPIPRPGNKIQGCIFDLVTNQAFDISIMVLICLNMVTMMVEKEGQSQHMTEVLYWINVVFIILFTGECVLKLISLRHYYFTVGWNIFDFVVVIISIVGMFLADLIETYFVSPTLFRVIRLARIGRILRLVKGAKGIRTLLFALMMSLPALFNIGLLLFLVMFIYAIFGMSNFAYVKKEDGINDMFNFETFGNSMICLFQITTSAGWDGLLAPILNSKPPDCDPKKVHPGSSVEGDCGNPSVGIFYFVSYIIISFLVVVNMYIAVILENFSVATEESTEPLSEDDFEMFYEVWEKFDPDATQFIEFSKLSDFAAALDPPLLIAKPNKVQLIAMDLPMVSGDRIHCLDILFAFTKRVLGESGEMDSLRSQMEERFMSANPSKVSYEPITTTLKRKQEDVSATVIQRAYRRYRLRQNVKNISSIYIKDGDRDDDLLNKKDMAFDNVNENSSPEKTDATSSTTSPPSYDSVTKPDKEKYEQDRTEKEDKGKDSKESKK
A fluorescence indicator that can be used in alternative fluorescence assays is the blue version membrane potential dye (MDS, Molecular Devices, Sunnyvale, Calif.), a dye that detects changes in molecules following a change in membrane potential. An increase in fluorescence is expected if agonist stimulation provokes a change in membrane potential. Cells expressing Nav1.7 or other sodium channels are incubated with the membrane potential dye 30-60 minutes before the fluorescence assay. In the case of the KCl pre-stimulation version of the assay, the dye and all other components are washed out immediately before the assay, and the dye is then replaced. In the version lacking KCl pre-stimulation, the dye remains on the cells and is not washed out or replaced. The dye is stored in the dark as a lyophilized powder, and then an aliquot dissolved in assay buffer to form a 20×-concentrated stock solution that can be used for several weeks.
In the fluorescence assays, two agonists were used in combination, namely 1) veratridine; and 2) the venom from the yellow scorpion, Leiurus quinquestriatus hebraeus. Veratridine is an alkaloid small molecule that facilitates the capture of channel openings by inhibiting inactivation, and the scorpion venom is a natural preparation that includes peptide toxins selective for different subsets of voltage-gated sodium channels. These scorpion toxins inhibit the fast inactivation of their cognate target channels. Stock solutions of the agonists were prepared to 40 mM in DMSO (veratridine) and 1 mg/mL in dH2O (scorpion venom), and then diluted to make a 4× or 2× stock (depending on the particular assay) in assay buffer, the final concentration being 100 μM (veratridine) and 10 μg/mL (scorpion venom). Both of the agonists were purchased from Sigma Aldrich, St. Louis, Mo.
Test compounds were dissolved in DMSO to yield 10 mM stock solutions. The stock solutions were further diluted using DMSO in 1:3 serial dilution steps with 10 points (10,000 μM, […], 370 μM, 123 μM, 41 μM, 14 μM, 4.6 μM, 1.5 μM and 0.5 μM). The stock solutions were further diluted in assay buffer (1:125) as 4× stock serial dilutions with a DMSO concentration of 0.8% (final [DMSO], in the assay, from the compounds component=0.2%), so that the compounds' final concentrations in the assay were 20 μM, 6.7 μM, 2.2 μM, 0.74 μM, 0.25 μM and 0.08 μM, 0.03 μM, 0.01 μM, 0.003 μM and 0.001 μM. If a particular test article appeared to be especially potent, then the concentration curve was adjusted, e.g., to 10-fold lower concentrations, in order to perform the dose-response in a more relevant concentration range. Compound dilutions were added during the dye-loading and pre-stimulation step, and then again during the fluorescence assay, early in the kinetic read.
The data were analyzed according to methods known to those skilled in the art or using the GraphPad® Prism Program, version 4.0 or higher (available from GraphPad Software, San Diego, Calif.) to determine the IC50 value for the test article. […]
For `Cn1nccc1-c1cc(C(F)(F)F)ccc1Oc1ccc(-c2nc(C(N)=O)cc([C@H](O)CO)n2)cc1` [compound 122, (S)-6-(1,2-dihydroxyethyl)-2-(4-(2-(1-methyl-1H-pyrazol-5-yl)-4-(trifluoromethyl)phenoxy)phenyl) pyrimidine-4-carboxamide], the IC50 was 0.079 ± 0.015 µM.

On to `Cn1nccc1-c1cc(C(F)(F)F)ccc1Oc1ccc(-c2cccc(C(N)=O)n2)cc1` [compound 123, 6-(4-(2-(1-methyl-1H-pyrazol-5-yl)-4-(trifluoromethyl)phenoxy)phenyl) picolinamide], for which the IC50 came to 0.149 ± 0.056 µM.

As to `CCN(CC)Cc1cc(C(F)(F)F)ccc1Oc1ccc(-c2nc(CCOC(C)=O)cc(C(N)=O)n2)cc1` [compound 124, 2-(6-carbmoyl-2-(4-(2-((diethylamino)methyl)-4-(trifluoromethyl)phenoxy)phenyl)pyrimidin-4-yl)ethyl acetate], the IC50 amounted to 0.367 ± 0.028 µM.

Take `Cn1nccc1-c1cc(C(F)(F)F)ccc1Oc1ccc(-c2nccc(C(N)=O)n2)cc1` [compound 125, 2-(4-(2-(1-methyl-1H-pyrazol-5-yl)-4-(trifluoromethyl)phenoxy)phenyl) pyrimidine-4-carboxamide]: the IC50 was 0.311 ± 0.006 µM.

As to `Cn1nccc1-c1cc(C(F)(F)F)ccc1Oc1ccc(-c2nc(N[C@H]3CCNC3=O)cc(C(N)=O)n2)cc1` [compound 126, (S)-2-(4-(2-(1-methyl-1H-pyrazol-5-yl)-4-(trifluoromethyl)phenoxy)phenyl)-6-((2-oxopyrrolidin-3-yl)amino)pyrimidine-4-carboxamide], the IC50 turned out to be 0.288 ± 0.045 µM.

`NC(=O)c1cc(CCn2ccnc2)nc(-c2ccc(Oc3ccc(C(F)(F)F)cc3CN3CCOCC3)cc2)n1` [compound 127, 6-(2-(1H-imidazol-1-yl)ethyl)-2-(4-(2-(morpholinomethyl)-4-(trifluoromethyl)phenoxy)phenyl) pyrimidine-4-carboxamide]: the IC50 was 0.486 ± 0.032 µM.

Turning to `CN(C)c1ncc(-c2cc(C(F)(F)F)ccc2Oc2ccc(-c3nc(N[C@H]4CCNC4=O)cc(C(N)=O)n3)cc2)cn1` [compound 128, (S)-2-(4-(2-(2-(dimethylamino)pyrimidin-5-yl)-4-(trifluoromethyl)phenoxy)phenyl)-6-((2-oxopyrrolidin-3-yl)amino)pyrimidine-4-carboxamide], the IC50 is 0.684 ± 0.034 µM.

For the compound `CN(C)c1cnc(-c2cc(C(F)(F)F)ccc2Oc2ccc(-c3nc(N[C@H]4CCNC4=O)cc(C(N)=O)n3)cc2)cn1` [compound 129, (S)-2-(4-(2-(5-(dimethylamino)pyrazin-2-yl)-4-(trifluoromethyl)phenoxy)phenyl)-6-((2-oxopyrrolidin-3-yl)amino)pyrimidine-4-carboxamide], the IC50 was found to be 0.702 ± 0.035 µM.

As for `CCN(CC)Cc1cc(C(F)(F)F)ccc1Oc1ccc(-c2nc(C(N)=O)cc([C@H](O)CO)n2)cc1` [compound 130, (S)-2-(4-(2-((diethylamino)methyl)-4-(trifluoromethyl)phenoxy)phenyl)-6-(1,2-dihydroxyethyl)pyrimidine-4-carboxamide], the IC50 was 1.28 ± 0.135 µM.

Consider `CCN(CC)Cc1cc(C(F)(F)F)ccc1Oc1ccc(-c2nc(C(N)=O)cc(C(=O)O)n2)cc1` [compound 131, 6-carbamoyl-2-(4-(2-((diethylamino)methyl)-4-(trifluoromethyl)phenoxy)phenyl) pyrimidine-4-carboxylic acid], for which the IC50 is more than 20 µM.

On to `NC(=O)c1cc(C(=O)O)nc(-c2ccc(Oc3ccc(C(F)(F)F)cc3CN3CCOCC3)cc2)n1` [compound 132, 6-carbamoyl-2-(4-(2-(morpholinomethyl)-4-(trifluoromethyl)phenoxy)phenyl) pyrimidine-4-carboxylic acid], for which the IC50 is 9.8 ± 0.365 µM.

As for `CCN(CC)Cc1cc(C(F)(F)F)ccc1Oc1ccc(-c2nc(C(N)=O)cc([C@@H](O)CO)n2)cc1` [compound 133, (R)-2-(4-(2-((diethylamino)methyl)-4-(trifluoromethyl)phenoxy)phenyl)-6-(1,2-dihydroxyethyl)pyrimidine-4-carboxamide], the IC50 is 0.699 ± 0.045 µM.

Take `C[C@H](Nc1cc(C(N)=O)nc(-c2ccc(Oc3ccc(C(F)(F)F)cc3-c3cnc(N(C)C)cn3)cc2)n1)C(N)=O` [compound 134, (S)-6-((1-amino-1-oxopropan-2-yl)amino)-2-(4-(2-(5-(dimethylamino)pyrazin-2-yl)-4-(trifluoromethyl)phenoxy)phenyl) pyrimidine-4-carboxamide]: the IC50 is 0.393 ± 0.048 µM.

Regarding `Cn1nccc1-c1cc(C(F)(F)F)ccc1Oc1ccc(-c2cc([C@H](O)CO)cc(C(N)=O)n2)cc1` [compound 135, (S)-4-(1,2-dihydroxythyl)-6-(4-(2-(1-methyl-1H-pyrazol-5-yl)-4-(trifluoromethyl)phenoxy)phenyl) picolinamide], the IC50 worked out at 0.294 ± 0.054 µM.

As for `NC(=O)c1cc([C@H](O)CO)cc(-c2ccc(Oc3ccc(Cl)cc3-c3ccnn3C3CNC3)cc2)n1` [compound 136, (S)-6-(4-(2-(1-(azetidin-3-yl)-1H-pyrazol-5-yl)-4-chlorophenoxy)phenyl)-4-(1,2-dihydroxyethyl)picolinamide], the IC50 was more than 20 µM.

For the compound `NC(=O)c1cc(N[C@H]2CCNC2=O)nc(-c2ccc(Oc3ccc(Cl)cc3-c3ccnn3C3CNC3)cc2)n1` [compound 137, (S)-2-(4-(2-(1-(azetidin-3-yl)-1H-pyrazol-5-yl)-4-chlorophenoxy)phenyl)-6-((2-oxopyrrolidin-3-yl)amino)pyrimidine-4-carboxamide], the IC50 was more than 20 µM.

With `C[C@H](Nc1cc(C(N)=O)nc(-c2ccc(Oc3ccc(C(F)(F)F)cc3-c3ccnn3C)cc2)n1)C(N)=O` [compound 138, (S)-6-((1-amino-1-oxopropan-2-yl)amino)-2-(4-(2-(1-methyl-1H-pyrazol-5-yl)-4-(trifluoromethyl)phenoxy)phenyl) pyrimidine-4-carboxamide], the 50% inhibitory concentration (IC50) is 0.6 ± 0.077 µM.

Regarding `C[C@H](Nc1cc(C(N)=O)nc(-c2ccc(Oc3ccccc3-c3ccnn3C)cc2)n1)C(N)=O` [compound 139, (S)-6-((1-amino-1-oxopropan-2-yl)amino)-2-(4-(2-(1-methyl-1H-pyrazol-5-yl)phenoxy)phenyl)-pyrimidine-4-carboxamide], the IC50 fell in the range of 10 to 20 µM.

In the next experiment the target is T1, human Nav1.7. The experiment can be described thus: FLIPR sodium dye assay (CoroNa Green AM Na+ dye, primary fluorescence assay). The class given is cell-based. As to conditions: recombinant Nav1.7/HEK293 cells. The method in brief:
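HEK293 cells stably expressing human Nav1.7 α subunit (no β/γ subunits), loaded with 5 μM CoroNa Green Na+ dye in HEPES-buffered Hanks-type saline, pH 7.3. Na+ influx stimulated by 100 μM veratridine plus 10 μg/mL Leiurus scorpion venom; compounds tested at 20 μM down to 0.001 μM (10 points, 0.2% DMSO).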
Turning to `CN1CCN(C(=O)c2cc(C(F)(F)F)ccc2Oc2ccc(-c3cccc(C(N)=O)n3)cc2)CC1` [compound 162, 6-(4-(2-(4-methylpiperazine-1-carbonyl)-4-(trifluoromethyl)phenoxy)phenyl)picolinamide], the IC50 was found to be 7.95 ± 0.402 µM.

As to `CNC(=O)c1cc(C(F)(F)F)ccc1Oc1ccc(-c2cccc(C(N)=O)n2)cc1` [compound 163, 6-(4-(2-(methylcarbamoyl)-4-(trifluoromethyl)phenoxy)phenyl) picolinamide], the IC50 was more than 20 µM.

Regarding `CCN(CC)C(=O)c1cc(C(F)(F)F)ccc1Oc1ccc(-c2cccc(C(N)=O)n2)cc1` [compound 164, 6-(4-(2-(diethylcarbamoyl)-4-(trifluoromethyl)phenoxy)phenyl) picolinamide], the IC50 is 0.143 ± 0.023 µM.

As to `NC(=O)c1cccc(-c2ccc(Oc3ccc(C(F)(F)F)cc3C(=O)N3CCNC(=O)C3)cc2)n1` [compound 165, 6-(4-(2-(3-oxopiperazine-1-carbonyl)-4-(trifluoromethyl)-phenoxy)phenyl)picolinamide], the IC50 is more than 20 µM.
